± gives the expanded uncertainty stated by the source.
Assays:
[1] = xn = mol fraction of the nth substance listed; conditions: 101.32 kPa, Liquid
[2] = refractive index (Na D-line) (dimensionless); xn = mol fraction of the nth substance listed; conditions: 101.32 kPa, Liquid

CCCCCl [1-chlorobutane] + CCCCO
Conditions	mass density, 288.15 K [kg/m3]	mass density, 298.15 K [kg/m3]	mass density, 308.15 K [kg/m3]	refractive index, 288.15 K	refractive index, 298.15 K	refractive index, 308.15 K	viscosity, 288.15 K [mPa·s]	viscosity, 298.15 K [mPa·s]	viscosity, 308.15 K [mPa·s]
[1], x2 = 0	892.2 ± 0.6	881 ± 0.7	869.7 ± 0.7	–	–	–	0.472 ± 0.009	0.423 ± 0.008	0.382 ± 0.008
[1], x2 = 0.05	888 ± 0.6	876.9 ± 0.7	865.7 ± 0.7	–	–	–	0.49 ± 0.009	0.437 ± 0.008	0.388 ± 0.008
[1], x2 = 0.1	884.3 ± 0.7	873.3 ± 0.7	862.3 ± 0.7	–	–	–	0.506 ± 0.009	0.453 ± 0.008	0.41 ± 0.008
[1], x2 = 0.2	877 ± 0.7	866.3 ± 0.7	855.5 ± 0.7	–	–	–	0.569 ± 0.009	0.499 ± 0.009	0.442 ± 0.008
[1], x2 = 0.3	869.7 ± 0.7	859.4 ± 0.7	848.9 ± 0.8	–	–	–	0.655 ± 0.01	0.569 ± 0.009	0.497 ± 0.009
[1], x2 = 0.4	862.4 ± 0.7	852.4 ± 0.7	842.2 ± 0.8	–	–	–	0.781 ± 0.011	0.665 ± 0.01	0.57 ± 0.009
[1], x2 = 0.5	854.9 ± 0.7	845.3 ± 0.8	835.4 ± 0.8	–	–	–	0.953 ± 0.013	0.798 ± 0.011	0.676 ± 0.01
[1], x2 = 0.6	847.3 ± 0.8	838 ± 0.8	828.6 ± 0.8	–	–	–	1.196 ± 0.015	0.977 ± 0.013	0.81 ± 0.011
[1], x2 = 0.7	839.4 ± 0.8	830.5 ± 0.8	821.5 ± 0.8	–	–	–	1.528 ± 0.018	1.221 ± 0.015	1 ± 0.013
[1], x2 = 0.8	831.2 ± 0.8	822.7 ± 0.8	814.1 ± 0.9	–	–	–	1.979 ± 0.023	1.563 ± 0.019	1.251 ± 0.015
[1], x2 = 0.9	822.6 ± 0.8	814.5 ± 0.9	806.3 ± 0.9	–	–	–	2.601 ± 0.03	2.019 ± 0.024	1.584 ± 0.019
[1], x2 = 0.95	818.1 ± 0.8	810.3 ± 0.9	802.3 ± 0.9	–	–	–	2.966 ± 0.034	2.328 ± 0.027	1.784 ± 0.021
[2], x2 = 0	–	–	–	1.4045 ± 0.0006	1.3993 ± 0.0006	1.3941 ± 0.0006	–	–	–
[2], x2 = 0.05	–	–	–	1.4041 ± 0.0006	1.3989 ± 0.0006	1.3936 ± 0.0006	–	–	–
[2], x2 = 0.1	–	–	–	1.4039 ± 0.0006	1.3987 ± 0.0006	1.3934 ± 0.0006	–	–	–
[2], x2 = 0.2	–	–	–	1.4035 ± 0.0006	1.3984 ± 0.0006	1.3932 ± 0.0006	–	–	–
[2], x2 = 0.3	–	–	–	1.4031 ± 0.0006	1.3982 ± 0.0006	1.3931 ± 0.0006	–	–	–
[2], x2 = 0.4	–	–	–	1.4029 ± 0.0006	1.3981 ± 0.0006	1.3931 ± 0.0006	–	–	–
[2], x2 = 0.5	–	–	–	1.4027 ± 0.0006	1.398 ± 0.0006	1.3932 ± 0.0006	–	–	–
[2], x2 = 0.6	–	–	–	1.4024 ± 0.0006	1.3979 ± 0.0006	1.3932 ± 0.0006	–	–	–
[2], x2 = 0.7	–	–	–	1.4022 ± 0.0006	1.3978 ± 0.0006	1.3933 ± 0.0006	–	–	–
[2], x2 = 0.8	–	–	–	1.4019 ± 0.0006	1.3977 ± 0.0006	1.3933 ± 0.0006	–	–	–
[2], x2 = 0.9	–	–	–	1.4016 ± 0.0006	1.3975 ± 0.0006	1.3933 ± 0.0006	–	–	–
[2], x2 = 0.95	–	–	–	1.4013 ± 0.0006	1.3974 ± 0.0006	1.3933 ± 0.0006	–	–	–

— the NIST ThermoML archive (doi:10.1021/je030226s)
